Activity calls are given as the source filed them. No cut-off for these calls is given here.
Key:
[1] = target: T1, Nicotinamide N-methyltransferase (Homo sapiens, UniProt P40261); experiment: Inhibition of human NNMT (1 to 264 residues) expressed in Escherichia coli BL21 (DE3) using nicotinamide/SAM as substrate/co-factor measured for 20 mins by SAHH-coupled fluorescent assay
T1 sequence (P40261 whole entry): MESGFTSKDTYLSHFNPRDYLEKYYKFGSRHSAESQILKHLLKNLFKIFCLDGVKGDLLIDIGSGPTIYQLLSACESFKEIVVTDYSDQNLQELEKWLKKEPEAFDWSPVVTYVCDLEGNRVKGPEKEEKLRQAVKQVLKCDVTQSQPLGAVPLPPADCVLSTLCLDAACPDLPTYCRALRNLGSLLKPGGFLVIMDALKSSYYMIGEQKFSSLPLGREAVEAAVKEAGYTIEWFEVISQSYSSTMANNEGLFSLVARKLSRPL

[2] = target: T1, Nicotinamide N-methyltransferase; experiment: Binding affinity to human NNMT (1 to 264 residues) expressed in Escherichia coli BL21 (DE3) by isothermal titration calorimetric method
[3] = target: Histone-lysine N-methyltransferase, H3 lysine-79 specific (Homo sapiens, UniProt Q8TEK3); experiment: Inhibition of DOT1L (unknown origin) after 1 hr by filter-based assay
[4] = target: T2, Protein arginine N-methyltransferase 7 (Homo sapiens, UniProt Q9NVM4); experiment: Inhibition of PRMT7 (unknown origin) using [3H]-SAM as co-factor by scintillation proximity assay
T2 sequence (Q9NVM4 whole entry): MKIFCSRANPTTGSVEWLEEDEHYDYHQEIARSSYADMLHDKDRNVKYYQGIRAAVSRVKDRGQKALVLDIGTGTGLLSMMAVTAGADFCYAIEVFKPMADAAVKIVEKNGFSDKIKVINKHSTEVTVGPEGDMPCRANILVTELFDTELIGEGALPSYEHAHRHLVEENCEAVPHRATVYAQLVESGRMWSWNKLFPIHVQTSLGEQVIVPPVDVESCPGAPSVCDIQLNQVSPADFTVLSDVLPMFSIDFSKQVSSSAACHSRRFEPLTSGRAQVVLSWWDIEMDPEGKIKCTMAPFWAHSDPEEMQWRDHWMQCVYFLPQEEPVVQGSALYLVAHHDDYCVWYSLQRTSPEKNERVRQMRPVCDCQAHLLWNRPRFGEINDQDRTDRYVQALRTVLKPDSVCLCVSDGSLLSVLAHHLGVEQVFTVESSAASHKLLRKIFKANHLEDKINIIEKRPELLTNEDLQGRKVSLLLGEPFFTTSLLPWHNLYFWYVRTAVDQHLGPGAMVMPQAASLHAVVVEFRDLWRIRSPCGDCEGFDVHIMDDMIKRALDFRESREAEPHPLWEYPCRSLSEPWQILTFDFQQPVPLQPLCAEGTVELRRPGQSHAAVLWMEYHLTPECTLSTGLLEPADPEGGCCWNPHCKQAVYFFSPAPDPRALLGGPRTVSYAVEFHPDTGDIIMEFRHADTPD

[5] = target: T3, RNA 5'-monophosphate methyltransferase (Homo sapiens, UniProt Q7Z5W3); experiment: Inhibition of BCDIN3D (unknown origin) using [3H]-SAM as co-factor by scintillation proximity assay
T3 sequence (Q7Z5W3 whole entry): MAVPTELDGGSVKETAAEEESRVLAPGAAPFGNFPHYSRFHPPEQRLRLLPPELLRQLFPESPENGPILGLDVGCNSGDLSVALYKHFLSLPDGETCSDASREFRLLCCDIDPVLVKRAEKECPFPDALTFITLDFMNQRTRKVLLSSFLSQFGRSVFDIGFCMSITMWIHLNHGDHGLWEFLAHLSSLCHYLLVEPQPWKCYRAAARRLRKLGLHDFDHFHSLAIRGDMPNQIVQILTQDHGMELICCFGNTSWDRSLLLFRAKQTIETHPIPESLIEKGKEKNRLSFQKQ

[6] = target: N-lysine methyltransferase SMYD2 (Homo sapiens, UniProt Q9NRG4); experiment: Inhibition of SMYD2 (unknown origin) using [3H]-SAM as co-factor by scintillation proximity assay
[7] = target: T4, Nicotinamide N-methyltransferase (Homo sapiens) (UniProt P40261); experiment: Competitive inhibition of human NNMT (1 to 264 residues) expressed in Escherichia coli BL21 (DE3) at 1 to 250 uM measured for 20 mins in presence of varying concentration of SAM by Lineweaver-Burk plot analysis
T4 sequence (whole entry): T1 sequence (P40261 whole entry)

[8] = target: T4, Nicotinamide N-methyltransferase (Homo sapiens); experiment: Nonompetitive inhibition of human NNMT (1 to 264 residues) expressed in Escherichia coli BL21 (DE3) at 1 to 250 uM measured for 20 mins in presence of varying concentration of nicotinamide by Lineweaver-Burk plot analysis
[9] = target: T4, Nicotinamide N-methyltransferase (Homo sapiens)
Description: Binding affinity to human NNMT (1 to 264 residues) expressed in Escherichia coli BL21 (DE3) assessed as change in enthalpy by isothermal titration calorimetric method

[10] = target: T4, Nicotinamide N-methyltransferase (Homo sapiens); remark: listed apart in the source
Description: Binding affinity to human NNMT (1 to 264 residues) expressed in Escherichia coli BL21 (DE3) assessed as change in entropy by isothermal titration calorimetric method

Sequence of N-lysine methyltransferase SMYD2 (Q9NRG4 whole entry, the tested form may be a part): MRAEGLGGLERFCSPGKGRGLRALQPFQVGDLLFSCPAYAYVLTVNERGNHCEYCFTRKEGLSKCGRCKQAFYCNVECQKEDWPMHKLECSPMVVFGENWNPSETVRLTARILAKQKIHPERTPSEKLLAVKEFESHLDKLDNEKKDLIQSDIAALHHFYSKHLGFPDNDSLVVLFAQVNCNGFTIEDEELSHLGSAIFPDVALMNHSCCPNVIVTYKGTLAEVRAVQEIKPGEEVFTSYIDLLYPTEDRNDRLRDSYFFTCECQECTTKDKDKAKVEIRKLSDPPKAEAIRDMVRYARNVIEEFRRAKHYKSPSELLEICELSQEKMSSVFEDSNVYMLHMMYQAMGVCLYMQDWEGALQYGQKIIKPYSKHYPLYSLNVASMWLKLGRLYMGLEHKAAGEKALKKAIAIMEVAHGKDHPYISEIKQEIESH
Sequence of Histone-lysine N-methyltransferase, H3 lysine-79 specific (Q8TEK3 whole entry): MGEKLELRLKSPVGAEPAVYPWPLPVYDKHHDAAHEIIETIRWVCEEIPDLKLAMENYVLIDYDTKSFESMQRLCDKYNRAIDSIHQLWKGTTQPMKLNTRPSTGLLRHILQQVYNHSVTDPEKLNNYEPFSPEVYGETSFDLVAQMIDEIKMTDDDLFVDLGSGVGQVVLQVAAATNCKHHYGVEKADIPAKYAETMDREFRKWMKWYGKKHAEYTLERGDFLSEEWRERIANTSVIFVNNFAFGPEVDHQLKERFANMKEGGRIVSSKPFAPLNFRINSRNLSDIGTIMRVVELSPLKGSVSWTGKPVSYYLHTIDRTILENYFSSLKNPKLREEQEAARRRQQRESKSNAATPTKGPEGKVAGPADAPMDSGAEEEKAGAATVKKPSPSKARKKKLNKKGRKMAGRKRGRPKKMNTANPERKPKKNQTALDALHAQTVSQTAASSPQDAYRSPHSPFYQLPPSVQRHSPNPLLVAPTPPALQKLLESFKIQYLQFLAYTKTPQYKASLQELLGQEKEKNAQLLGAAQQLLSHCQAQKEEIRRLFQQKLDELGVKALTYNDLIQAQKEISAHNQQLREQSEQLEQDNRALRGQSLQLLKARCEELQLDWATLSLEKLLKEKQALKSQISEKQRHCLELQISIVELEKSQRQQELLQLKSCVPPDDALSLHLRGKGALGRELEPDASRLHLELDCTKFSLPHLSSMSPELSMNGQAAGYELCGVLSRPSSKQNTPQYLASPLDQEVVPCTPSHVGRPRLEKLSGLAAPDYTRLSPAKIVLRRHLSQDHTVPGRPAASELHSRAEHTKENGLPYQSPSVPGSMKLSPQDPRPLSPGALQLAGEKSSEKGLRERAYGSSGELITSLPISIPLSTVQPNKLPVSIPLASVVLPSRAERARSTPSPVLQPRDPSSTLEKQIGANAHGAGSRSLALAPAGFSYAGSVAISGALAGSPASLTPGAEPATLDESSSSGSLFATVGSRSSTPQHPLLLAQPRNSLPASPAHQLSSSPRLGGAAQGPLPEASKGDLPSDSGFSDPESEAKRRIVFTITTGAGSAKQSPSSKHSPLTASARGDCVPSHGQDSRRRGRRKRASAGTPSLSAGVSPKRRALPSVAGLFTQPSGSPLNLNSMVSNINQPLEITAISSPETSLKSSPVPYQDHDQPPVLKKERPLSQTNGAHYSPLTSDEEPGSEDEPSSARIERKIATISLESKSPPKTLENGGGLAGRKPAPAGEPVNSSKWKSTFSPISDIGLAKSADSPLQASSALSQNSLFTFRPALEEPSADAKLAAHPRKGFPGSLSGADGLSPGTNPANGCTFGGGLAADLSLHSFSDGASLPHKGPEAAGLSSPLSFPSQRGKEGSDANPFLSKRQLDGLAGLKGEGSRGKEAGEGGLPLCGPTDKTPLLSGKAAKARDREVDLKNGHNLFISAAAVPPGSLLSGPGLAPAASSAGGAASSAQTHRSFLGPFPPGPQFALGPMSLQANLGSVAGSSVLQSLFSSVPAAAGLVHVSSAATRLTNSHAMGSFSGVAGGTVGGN

IC50 [3] [µM]	IC50 [4] [µM]	IC50 [5] [µM]	IC50 [6] [µM]	inhibition [7]	inhibition [8]	SMILES	IC50 [1] [µM]	Kd [2] [µM]	deltaH [9] [kcal/mol]	deltaS [10] [cal/mol/deg]
1.3	20	40	62	Active	Active	NC(=O)c1cccc(CCN(CCC[C@H](N)C(=O)O)C[C@H]2O[C@@H](n3cnc4c(N)ncnc43)[C@H](O)[C@@H]2O)c1	14	2.7	-4.6	10
						NC(=O)c1cccc(CCN(CC[C@H](N)C(=O)O)C[C@H]2O[C@@H](n3cnc4c(N)ncnc43)[C@H](O)[C@@H]2O)c1	160	42.8	-2.5	11.4

From ChEMBL document CHEMBL4024794 (J Med Chem, 2018)
